# Target: T1, human PKCθ full length enzyme (Homo sapiens, UniProt Q04759)
# T1 construct: human PKCθ full length enzyme (Panvera Cat# P2996); purchased Panvera P2996
# Assay: PKCθ IMAP Assay
# Type: biochemical
# Settings: PKCθ 1 nM; ATP 6 μM; peptide 100 nM; DMSO 5%; 25 minutes at room temperature; FP readout; read-out: PKC-Theta Mean IC50
# Procedure: The materials used include the following: human PKCθ full length enzyme (Panvera Cat# P2996); substrate peptide: 5FAM-RFARKGSLRQKNV-OH (Molecular Devices, RP7032); ATP (Sigma Cat # A2383); DTT (Pierce, 20291); 5× kinase reaction buffer (Molecular Devices, R7209); 5× binding buffer A (Molecular Devices, R7282), 5× binding buffer B (Molecular Devices, R7209); IMAP Beads (Molecular Devices, R7284); and 384-well plates (Corning Costar, 3710).
# The reaction buffer was prepared by diluting the 5× stock reaction buffer and adding DTT to obtain a concentration of 3.0 mM. The binding buffer was prepared by diluting the 5× binding buffer A. A master mix solution was prepared using a 90% dilution of the reaction buffer containing 2×ATP (12 uM) and 2× peptide (200 nm). Compounds were diluted in DMSO to 20× of the maximum concentration for the IC50 measurement. 27 μl of the master mix solution for each IC50 curve was added to the first column in a 384-well plate and 3 μl of 20× compound in DMSO was added to each well.
# The final concentration of compound was 2× and 10% DMSO. DMSO was added to the rest of the master mix to increase the concentration to 10%. 10 μl of the master mix containing 10% DMSO was added to the rest of the wells on the plate except the 2nd column. 20 μl was transferred from the first column to the 2nd column. The compounds were serially diluted in 2:1 ratio starting from the 2nd column. A 2×(2 nM) PKCθ solution was made in the reaction buffer. 10 μl of the PKCθ solution was added to every well to achieve these final concentrations: PKCθ-1 nM; ATP-6 μM; peptide-100 nM; DMSO-5%. Samples were incubated for 25 minutes at room temperature. The binding reagent was prepared by diluting the beads in 1× binding buffer to 800:1. 50 μl of the binding reagent was added to every well and incubated for 20 minutes. FP was measured using Envision2100 (PerkinElmer Life Sciences). Wells with no ATP and wells with no enzyme were used as controls.
# T1 sequence (Q04759 whole entry): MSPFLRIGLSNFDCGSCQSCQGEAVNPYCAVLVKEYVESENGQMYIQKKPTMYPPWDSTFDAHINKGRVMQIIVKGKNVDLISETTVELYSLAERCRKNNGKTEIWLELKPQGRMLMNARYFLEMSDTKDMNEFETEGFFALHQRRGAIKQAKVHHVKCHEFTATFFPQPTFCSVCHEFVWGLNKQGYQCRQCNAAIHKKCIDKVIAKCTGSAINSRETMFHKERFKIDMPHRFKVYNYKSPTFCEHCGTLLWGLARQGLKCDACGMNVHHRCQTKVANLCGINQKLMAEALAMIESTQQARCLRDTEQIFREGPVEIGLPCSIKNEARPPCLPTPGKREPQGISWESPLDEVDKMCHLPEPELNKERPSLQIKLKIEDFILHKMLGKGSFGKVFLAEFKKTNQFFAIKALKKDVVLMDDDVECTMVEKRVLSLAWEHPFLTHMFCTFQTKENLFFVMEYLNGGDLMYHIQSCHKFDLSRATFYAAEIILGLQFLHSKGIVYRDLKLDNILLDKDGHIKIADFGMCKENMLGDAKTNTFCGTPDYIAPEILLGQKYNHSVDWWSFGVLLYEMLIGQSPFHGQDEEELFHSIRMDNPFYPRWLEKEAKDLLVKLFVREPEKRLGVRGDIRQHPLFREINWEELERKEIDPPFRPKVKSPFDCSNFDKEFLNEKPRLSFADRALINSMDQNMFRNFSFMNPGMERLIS
row,Compound,IC50
1,"Cc1ncc(C#N)c(Nc2ccc3[nH]ccc3c2C)c1-c1ccc(OCCNCCO)cc1 [Example 17, 5-(4-{2-[(2-hydroxyethyl)amino]ethoxy}phenyl)-6-methyl-4-[(4-methyl-1H-indol-5-yl)amino]nicotinonitrile]",19 nM
2,"Cc1ncc(C#N)c(Nc2ccc3[nH]ccc3c2C)c1-c1ccc(OCCNCCCO)cc1 [Example 18, 5-(4-{2-[(3-hydroxypropyl)amino]ethoxy}phenyl)-6-methyl-4-[(4-methyl-1H-indol-5-yl)amino]nicotinonitrile]",40 nM
3,"Cc1ncc(C#N)c(Nc2ccc3[nH]ccc3c2C)c1-c1ccc(OCCNCCN2CCCC2)cc1 [Example 21, 6-methyl-4-[(4-methyl-1H-indol-5-yl)amino]-5-(4-{2-[(2-pyrrolidin-1-ylethyl)amino]ethoxy}phenyl)nicotinonitrile]",26 nM
4,"Cc1ncc(C#N)c(Nc2ccc3[nH]ccc3c2C)c1-c1ccc(OCCN2CCCCC2)cc1 [Example 24, 6-methyl-4-[(4-methyl-1H-indol-5-yl)amino]-5-[4-(2-piperidin-1-ylethoxy)phenyl]nicotinonitrile]",44 nM
5,"Cc1ncc(C#N)c(Nc2ccc3[nH]ccc3c2C)c1-c1ccc(OCCN2CCC(CCO)CC2)cc1 [Example 25, 5-(4-{2-[4-(2-hydroxyethyl)piperidin-1-yl]ethoxy}phenyl)-6-methyl-4-[(4-methyl-1H-indol-5-yl)amino]nicotinonitrile]",68 nM
6,"Cc1ncc(C#N)c(Nc2ccc3[nH]ccc3c2C)c1-c1ccc(OCCN2CCC(N3CCCC3)CC2)cc1 [Example 26, 6-methyl-4-[(4-methyl-1H-indol-5-yl)amino]-5-{4-[2-(4-pyrrolidin-1-ylpiperidin-1-yl)ethoxy]phenyl}nicotinonitrile]",31 nM
7,"Cc1ncc(C#N)c(Nc2ccc3[nH]ccc3c2C)c1-c1ccc(OCCN2CCC(N3CCCCC3)CC2)cc1 [Example 27, 5-{4-[2-(1,4′-bipiperidin-1′-yl)ethoxy]phenyl}-6-methyl-4-[(4-methyl-1H-indol-5-yl)amino]nicotinonitrile]",30 nM
8,"Cc1ncc(C#N)c(Nc2ccc3[nH]ccc3c2C)c1-c1ccc(OCCN2CCC(N3CCOCC3)CC2)cc1 [Example 28, 6-methyl-4-[(4-methyl-1H-indol-5-yl)amino]-5-{4-[2-(4-morpholin-4-ylpiperidin-1-yl)ethoxy]phenyl}nicotinonitrile]",28 nM
9,"Cc1ncc(C#N)c(Nc2ccc3[nH]ccc3c2C)c1-c1ccc(OCCN2CC(C)NCC2C)cc1 (stereo not shown) [Example 31, 5-{4-[2-(2,5-dimethylpiperazin-1-yl)ethoxy]phenyl}-6-methyl-4-[(4-methyl-1H-indol-5-yl)amino]nicotinonitrile]",42 nM
10,"Cc1ncc(C#N)c(Nc2ccc3[nH]ccc3c2C)c1-c1ccc(OCCN2CC(C)NC(C)C2)cc1 (stereo not shown) [Example 32, 5-{4-[2-(3,5-dimethylpiperazin-1-yl)ethoxy]phenyl}-6-methyl-4-[(4-methyl-1H-indol-5-yl)amino]nicotinonitrile]",25 nM
11,"Cc1ncc(C#N)c(Nc2ccc3[nH]ccc3c2C)c1-c1ccc(OCCN2CCCNCC2)cc1 [Example 34, 5-{4-[2-(1,4-diazepan-1-yl)ethoxy]phenyl}-6-methyl-4-[(4-methyl-1H-indol-5-yl)amino]nicotinonitrile]",14 nM
12,"Cc1ncc(C#N)c(Nc2ccc3[nH]ccc3c2C)c1-c1ccc(OCCNCc2cccnc2)cc1 [Example 41, 6-methyl-4-[(4-methyl-1H-indol-5-yl)amino]-5-(4-{2-[(pyridin-3-ylmethyl)amino]ethoxy}phenyl)nicotinonitrile]",64 nM
13,"Cc1ncc(C#N)c(Nc2ccc3[nH]ccc3c2C)c1-c1ccc(OCCNCc2ccncc2)cc1 [Example 42, 6-methyl-4-[(4-methyl-1H-indol-5-yl)amino]-5-(4-{2-[(pyridin-4-ylmethyl)amino]ethoxy}phenyl)nicotinonitrile]",41 nM
14,"COc1ccc(-c2c(C)ncc(C#N)c2Nc2ccc3cc[nH]c3c2)cc1OC [Example 46, 5-(3,4-dimethoxyphenyl)-4-(1H-indol-6-ylamino)-6-methylnicotinonitrile]",11900 nM

# Further lines, results first:
row,IC50,Compound
1,556 nM,"COc1ccc(-c2c(C)ncc(C#N)c2Nc2ccc3[nH]c(C)cc3c2)cc1OC [Example 48, 5-(3,4-dimethoxyphenyl)-6-methyl-4-[(2-methyl-1H-indol-5-yl)amino]nicotinonitrile]"
2,50 nM,"Cc1ncc(C#N)c(Nc2ccc3[nH]ccc3c2)c1-c1ccccc1 [Example 50, 4-(1H-indol-5-ylamino)-6-methyl-5-phenylnicotinonitrile]"
3,31 nM,"COc1ccc(-c2c(C)ncc(C#N)c2Nc2ccc3[nH]ccc3c2)cc1OC [Example 51, 5-(3,4-dimethoxyphenyl)-4-(1H-indol-5-ylamino)-6-methylnicotinonitrile]"
4,250 nM,"COc1ccccc1-c1c(C)ncc(C#N)c1Nc1ccc2[nH]ccc2c1 [Example 52, 4-(1H-indol-5-ylamino)-5-(2-methoxyphenyl)-6-methylnicotinonitrile]"
5,34 nM,"COc1cccc(-c2c(C)ncc(C#N)c2Nc2ccc3[nH]ccc3c2)c1 [Example 53, 4-(1H-indol-5-ylamino)-5-(3-methoxyphenyl)-6-methylnicotinonitrile]"
6,41 nM,"COc1ccc(-c2c(C)ncc(C#N)c2Nc2ccc3[nH]ccc3c2)cc1 [Example 54, 4-(1H-indol-5-ylamino)-5-(4-methoxyphenyl)-6-methylnicotinonitrile]"
7,26 nM,"Cc1ncc(C#N)c(Nc2ccc3[nH]ccc3c2)c1-c1cc2ccccc2o1 [Example 55, 5-(1-benzofuran-2-yl)-4-(1H-indol-5-ylamino)-6-methylnicotinonitrile]"
8,137 nM,"Cc1ncc(C#N)c(Nc2ccc3[nH]ccc3c2)c1-c1cc2ccccc2s1 [Example 56, 5-(1-benzothiophen-2-yl)-4-(1H-indol-5-ylamino)-6-methylnicotinonitrile]"
9,87 nM,"Cc1ncc(C#N)c(Nc2ccc3[nH]ccc3c2)c1-c1cccc(CN(C)C)c1 [Example 57, 5-{3-[(dimethylamino)methyl]phenyl}-4-(1H-indol-5-ylamino)-6-methylnicotinonitrile]"
10,191 nM,"CCc1ncc(C#N)c(Nc2ccc3[nH]ccc3c2C)c1-c1ccc(OC)c(OC)c1 [Example 61, 5-(3,4-dimethoxyphenyl)-6-ethyl-4-[(4-methyl-1H-indol-5-yl)amino]nicotinonitrile]"
11,84 nM,"COc1ccc(-c2c(C)ncc(C#N)c2Nc2cc(Cl)c3[nH]ccc3c2C)cc1OC [Example 64, 4-[(7-chloro-4-methyl-1H-indol-5-yl)amino]-5-(3,4-dimethoxyphenyl)-6-methylnicotinonitrile]"
12,80 nM,"Cc1ncc(C#N)c(Nc2ccc3[nH]ccc3c2)c1-c1cccs1 [Example 65, 4-(1H-indol-5-ylamino)-6-methyl-5-(2-thienyl)nicotinonitrile]"
13,42 nM,"Cc1ncc(C#N)c(Nc2ccc3[nH]ccc3c2C)c1-c1cccc(CN(C)C)c1 [Example 66, 5-{3-[(dimethylamino)methyl]phenyl}-6-methyl-4-[(4-methyl-1H-indol-5-yl)amino]pyridine-3-carbonitrile]"
14,21 nM,"Cc1ncc(C#N)c(Nc2ccc3[nH]ccc3c2C)c1-c1ccc(C=O)o1 [Example 67, 5-(5-formylfuran-2-yl)-6-methyl-4-[(4-methyl-1H-indol-5-yl)amino]pyridine-3-carbonitrile]"
15,20 nM,"Cc1ncc(C#N)c(Nc2ccc3[nH]ccc3c2C)c1-c1ccc(CN2CCN(C)CC2)o1 [Example 68, 6-methyl-4-[(4-methyl-1H-indol-5-yl)amino]-5-{5-[(4-methylpiperazin-1-yl)methyl]furan-2-yl}pyridine-3-carbonitrile]"
16,4.8 nM,"Cc1ncc(C#N)c(Nc2ccc3[nH]ccc3c2C)c1-c1ccc(C=O)s1 [Example 69, 5-(5-formylthiophen-2-yl)-6-methyl-4-[(4-methyl-1H-indol-5-yl)amino]pyridine-3-carbonitrile]"
17,14 nM,"Cc1ncc(C#N)c(Nc2ccc3[nH]ccc3c2C)c1-c1ccc(CN2CCN(C)CC2)s1 [Example 70, 6-methyl-4-[(4-methyl-1H-indol-5-yl)amino]-5-{5-[(4-methylpiperazin-1-yl)methyl]thiophen-2-yl}pyridine-3-carbonitrile]"

# Reference: patent US20110028455A1, “Indole-substituted 3-cyanopyridines As Kinase Inhibitors” (Wyeth LLC, priority 2007, published 2011)
